Results as given in US9699976B2, “Direct and indirect organogenesis of Jatropha” (TEMASEK LIFE SCIENCES LABORATORY LTD., priority 2012, dated 2017).

Columns and labels:
[1] = system: petiole explant of Jatropha curcas; conditions: medium containing 2.27 μM TDZ; Kumar et al. (2011b); cited from earlier work
[2] = system: thin sections of petiole, pedicle, peduncle and rachis explants of Jatropha curcas; assay: Shoot bud induction directly from thin sections of explants (direct organogenesis); type: cell-based; conditions: only BA and Kn alone in the medium
Description: The petiole from 2nd to 4th leaf and pedicle, peduncle and rachis from inflorescence before the onset of flowering were selected as explant for the present study. Explants were initially washed in running tap water for 5 min and followed by wash in chlorohexidine surgical wash (two drops in 100 ml of distilled water) for 10 min to remove the adhering particles on the surface. The explants were surface sterilized in 0.1% HgCl2 for 10 min followed by 3 washes using sterilized distilled water.
The chemicals used in the present study were purchased from Duchefa Biochemie, Haarlem, The Netherlands and Sigma Aldrich, Inc., St Louis, USA. The culture media composed of MS basal salts, B5 vitamins, 3% sucrose and 0.8% agar as solidifying agent. The pH of the media is adjusted to 5.6-5.8 before autoclaving. All the cultures were incubated at 25±2° C. with 16 hr light/8 hr dark photoperiod conditions at a light intensity of 150 μEm^−2s^−1. The culture conditions are same throughout the stages of organogenesis.
The thin sections of all the explants (petiole, pedicle, peduncle and rachis) and the calli initiated from different explants (petiole, pedicle, […]; […]).
Thin sections of explants placed on shoot induction medium expanded and bended towards up and started to produce adventitious buds from the explants within 2 weeks. […]

[3] = system: elongated shoots of Jatropha curcas; assay: Maturation of elongated shoots on maturation medium; type: cell-based; conditions: BA present in maturation medium; abnormal shoot production and in vitro flowering
Description: The chemicals used in the present study were purchased from Duchefa Biochemie, Haarlem, The Netherlands and Sigma Aldrich, Inc., St Louis, USA. The culture media composed of MS basal salts, B5 vitamins, 3% sucrose and 0.8% agar as solidifying agent. The pH of the media is adjusted to 5.6-5.8 before autoclaving. All the cultures were incubated at 25±2° C. with 16 hr light/8 hr dark photoperiod conditions at a light intensity of 150 μEm^−2s^−1. The culture conditions are same throughout the stages of organogenesis. […] Elongated shoots were separated from the clump and cultured on the Maturation medium containing Kn (1.17 μM), AdSO4 (135.75 μM), GA3 (0.73 μM) IBA (0.49 μM) and casein hydrolysate (100 mg/l). Well elongated shoots were separated carefully from the clumps and transferred to maturation medium to induce physiological maturity. Most of the shoots culture in the maturation medium reached maturity within 3 weeks whereas some shoots still need additional 3 weeks and were cultured in the same medium to bring physiological maturity.

Compound	average shoots per 0.5 cm length petiole explant [1] [shoots per explant]	response with petiole explant [1] [%]	effect on shoot bud induction from the tested explants [2]	effect of presence in maturation medium on shoot maturation [3]
O=C(Nc1ccccc1)Nc1cnns1 [TDZ, thidiazuron]	4.98	57.61	–	–
c1coc(CNc2ncnc3[nH]cnc23)c1 [Kn, kinetin]	–	–	no effect	–
c1ccc(CNc2ncnc3nc[nH]c23)cc1 [BA, 6-benzylaminopurine]	–	–	no effect	hindered maturation
